Source: ChEMBL document CHEMBL1201862, “PubChem BioAssay data set” (2004)
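Results reflect a 48-hour exposure of cells in 96-well plates to compound at five concentrations. GI50 is the concentration that inhibits growth by half.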 Calls of active or inactive are those of the source. Rule as the data show it: active = GI50 up to about 1.1 µM and inactive = higher.

Assays:
Test in all cases: NCI anticancer screen, dose series, 48 h
ACHN = test system: ACHN
CCRF-CEM = test system: CCRF-CEM
OVCAR-4 = test system: OVCAR-4
SK-OV-3 = test system: SK-OV-3
SF-268 = test system: SF-268
HCT-15 = test system: HCT-15
SW-620 = test system: SW-620
OVCAR-3 = test system: OVCAR-3
CAKI-1 = test system: CAKI-1
NCI-H460 = test system: NCI-H460
DLD-1 = test system: DLD-1
IGROV-1 = test system: IGROV-1
A549 = test system: A549
HOP-18 = test system: HOP-18
786-0 = test system: 786-0
SK-MEL-28 = test system: SK-MEL-28
LOX IMVI = test system: LOX IMVI
NCI-H23 = test system: NCI-H23
NCI-H226 = test system: NCI-H226
SF-295 = test system: SF-295
TK-10 = test system: TK-10
HCT-116 = test system: HCT-116
UACC-62 = test system: UACC-62
M14 = test system: M14
K562 = test system: K562
HCC 2998 = test system: HCC 2998
KM12 = test system: KM12
COLO 205 = test system: COLO 205
OVCAR-5 = test system: OVCAR-5
KM-20L2 = test system: KM-20L2
SNB-19 = test system: SNB-19
MOLT-4 = test system: MOLT-4
SF-539 = test system: SF-539
A498 = test system: A498
UACC-257 = test system: UACC-257
HL-60 = test system: HL-60
RXF 393 = test system: RXF 393
SNB-75 = test system: SNB-75
HOP-62 = test system: HOP-62
UO-31 = test system: UO-31
HT-29 = test system: HT-29
SN12C = test system: SN12C
DMS-114 = test system: DMS-114
M19-MEL = test system: M19-MEL
U-251 = test system: U-251
NCI-H522 = test system: NCI-H522
OVCAR-8 = test system: OVCAR-8
SK-MEL-2 = test system: SK-MEL-2
EKVX = test system: EKVX
HOP-92 = test system: HOP-92
SK-MEL-5 = test system: SK-MEL-5
Malme-3M = test system: Malme-3M
RPMI-8226 = test system: RPMI-8226
DMS-273 = test system: DMS-273
SNB-78 = test system: SNB-78
XF498 = test system: XF498
LXFL 529 = test system: LXFL 529
SR = test system: SR

SMILES: CCOC(=O)c1sc2c(C(=O)OCC)n3ccccc3c2c1N
- GI50 (ACHN): 52.8 µM (inactive)
- GI50 (CCRF-CEM): > 100 µM (inactive)
- GI50 (OVCAR-4): > 100 µM (inactive)
- GI50 (SK-OV-3): 38 µM (inactive)
- GI50 (SF-268): 21.7 µM (inactive)
- GI50 (HCT-15): > 100 µM
- GI50 (SW-620): > 100 µM (inactive)
- GI50 (OVCAR-3): > 100 µM (inactive)
- GI50 (CAKI-1): > 100 µM (inactive)
- GI50 (NCI-H460): > 100 µM (inactive)
- GI50 (DLD-1): 82.2 µM (inactive)
- GI50 (IGROV-1): > 100 µM (inactive)
- GI50 (A549): > 100 µM (inactive)
- GI50 (HOP-18): > 100 µM (inactive)
- GI50 (786-0): 36.2 µM (inactive)
- GI50 (SK-MEL-28): > 100 µM (inactive)
- GI50 (LOX IMVI): > 100 µM (inactive)
- GI50 (NCI-H23): 43.6 µM (inactive)
- GI50 (NCI-H226): > 10 µM (inactive)
- GI50 (SF-295): 44.6 µM (inactive)
- GI50 (TK-10): 52.7 µM (inactive)
- GI50 (HCT-116): 81.5 µM (inactive)
- GI50 (UACC-62): > 100 µM (inactive)
- GI50 (M14): > 100 µM (inactive)
- GI50 (K562): > 100 µM (inactive)
- GI50 (HCC 2998): > 100 µM (inactive)
- GI50 (KM12): > 100 µM (inactive)
- GI50 (COLO 205): > 100 µM (inactive)
- GI50 (OVCAR-5): > 100 µM (inactive)
- GI50 (KM-20L2): > 100 µM (inactive)
- GI50 (SNB-19): 31.7 µM (inactive)
- GI50 (MOLT-4): > 100 µM (inactive)
- GI50 (SF-539): 64.1 µM (inactive)
- GI50 (A498): 71.9 µM (inactive)
- GI50 (UACC-257): > 100 µM (inactive)
- GI50 (HL-60): > 100 µM (inactive)
- GI50 (RXF 393): 20.2 µM (inactive)
- GI50 (SNB-75): 31.7 µM (inactive)
- GI50 (HOP-62): 19.2 µM (inactive)
- GI50 (UO-31): 26.1 µM (inactive)
- GI50 (HT-29): > 100 µM (inactive)
- GI50 (SN12C): 96.8 µM (inactive)
- GI50 (DMS-114): 40.6 µM (inactive)
- GI50 (M19-MEL): > 100 µM (inactive)
- GI50 (U-251): 31.8 µM (inactive)
- GI50 (NCI-H522): 20.3 µM (inactive)
- GI50 (OVCAR-8): 61.9 µM (inactive)
- GI50 (SK-MEL-2): > 100 µM (inactive)
- GI50 (EKVX): 59.4 µM (inactive)
- GI50 (HOP-92): 13.4 µM (inactive)
- GI50 (SK-MEL-5): > 100 µM (inactive)
- GI50 (Malme-3M): > 100 µM (inactive)
- GI50 (RPMI-8226): > 100 µM (inactive)
- GI50 (DMS-273): 53.6 µM (inactive)
- GI50 (SNB-78): 50.9 µM (inactive)
- GI50 (XF498): 25.3 µM (inactive)

SMILES: COc1cc(O)c(C(=O)/C=C/c2ccc(OC)c(OCc3ccccc3)c2)c(OC)c1
- GI50 (ACHN): 5.58 µM (inactive)
- GI50 (CCRF-CEM): 3.92 µM (inactive)
- GI50 (OVCAR-4): > 100 µM (inactive)
- GI50 (SK-OV-3): > 100 µM (inactive)
- GI50 (HCT-15): 10.3 µM
- GI50 (SW-620): 36.5 µM (inactive)
- GI50 (OVCAR-3): 38.5 µM (inactive)
- GI50 (CAKI-1): > 100 µM (inactive)
- GI50 (NCI-H460): > 100 µM (inactive)
- GI50 (DLD-1): > 100 µM (inactive)
- GI50 (IGROV-1): > 100 µM (inactive)
- GI50 (A549): 64.6 µM (inactive)
- GI50 (HOP-18): > 100 µM (inactive)
- GI50 (786-0): > 100 µM (inactive)
- GI50 (LOX IMVI): 33.7 µM (inactive)
- GI50 (NCI-H23): 6.52 µM (inactive)
- GI50 (NCI-H226): > 100 µM (inactive)
- GI50 (SF-295): 0.301 µM (active)
- GI50 (TK-10): > 100 µM (inactive)
- GI50 (HCT-116): 4.55 µM (inactive)
- GI50 (UACC-62): 1.42 µM (inactive)
- GI50 (M14): > 100 µM (inactive)
- GI50 (LXFL 529): 5.45 µM (inactive)
- GI50 (K562): 5.93 µM (inactive)
- GI50 (HCC 2998): 46.9 µM (inactive)
- GI50 (KM12): 31 µM (inactive)
- GI50 (COLO 205): 0.0446 µM (active)
- GI50 (OVCAR-5): > 100 µM (inactive)
- GI50 (KM-20L2): > 100 µM (inactive)
- GI50 (SNB-19): > 100 µM (inactive)
- GI50 (MOLT-4): 5.46 µM (inactive)
- GI50 (SF-539): > 100 µM (inactive)
- GI50 (SR): 4.08 µM (inactive)
- GI50 (UACC-257): > 100 µM (inactive)
- GI50 (HL-60): 8.67 µM (inactive)
- GI50 (RXF 393): 5.21 µM (inactive)
- GI50 (SNB-75): 22.1 µM (inactive)
- GI50 (HOP-62): > 100 µM (inactive)
- GI50 (UO-31): > 100 µM (inactive)
- GI50 (HT-29): > 100 µM (inactive)
- GI50 (SN12C): > 100 µM (inactive)
- GI50 (M19-MEL): > 100 µM (inactive)
- GI50 (U-251): > 100 µM (inactive)
- GI50 (NCI-H522): 7.46 µM (inactive)
- GI50 (OVCAR-8): 6.84 µM (inactive)
- GI50 (SK-MEL-2): 37.8 µM (inactive)
- GI50 (EKVX): > 100 µM (inactive)
- GI50 (HOP-92): > 100 µM (inactive)
- GI50 (SK-MEL-5): > 100 µM (inactive)
- GI50 (RPMI-8226): 5.86 µM (inactive)
- GI50 (DMS-273): 0.175 µM (active)
- GI50 (SNB-78): 2.57 µM (inactive)
- GI50 (XF498): > 100 µM (inactive)

SMILES: CC1=CC(=O)C(=O)C2=C1OC1(C2)C(C)CCC2C3(C)CCC(O)C(C)(C)C3CCC21C (stereo not drawn)
- GI50 (ACHN): 16.9 µM (inactive)
- GI50 (CCRF-CEM): 14 µM (inactive)
- GI50 (OVCAR-4): 17.2 µM (inactive)
- GI50 (SK-OV-3): 29 µM (inactive)
- GI50 (SF-268): 26.4 µM (inactive)
- GI50 (HCT-15): 19.4 µM
- GI50 (SW-620): 22.1 µM (inactive)
- GI50 (OVCAR-3): 18.6 µM (inactive)
- GI50 (CAKI-1): 17.5 µM (inactive)
- GI50 (NCI-H460): 17.5 µM (inactive)
- GI50 (DLD-1): 20.1 µM (inactive)
- GI50 (IGROV-1): 17.6 µM (inactive)
- GI50 (A549): 33.3 µM (inactive)
- GI50 (786-0): 17.4 µM (inactive)
- GI50 (SK-MEL-28): 20.5 µM (inactive)
- GI50 (LOX IMVI): 16.7 µM (inactive)
- GI50 (NCI-H23): 15.8 µM (inactive)
- GI50 (NCI-H226): 18.2 µM (inactive)
- GI50 (SF-295): 15.7 µM (inactive)
- GI50 (TK-10): 18.8 µM (inactive)
- GI50 (HCT-116): 15.3 µM (inactive)
- GI50 (UACC-62): 15.8 µM (inactive)
- GI50 (M14): 18.8 µM (inactive)
- GI50 (LXFL 529): 15.5 µM (inactive)
- GI50 (K562): 17 µM (inactive)
- GI50 (HCC 2998): 19 µM (inactive)
- GI50 (KM12): 15.7 µM (inactive)
- GI50 (COLO 205): 16.3 µM (inactive)
- GI50 (OVCAR-5): 18.2 µM (inactive)
- GI50 (KM-20L2): 18.7 µM (inactive)
- GI50 (SNB-19): 16.8 µM (inactive)
- GI50 (MOLT-4): 17.1 µM (inactive)
- GI50 (SF-539): > 100 µM (inactive)
- GI50 (SR): 23.8 µM (inactive)
- GI50 (UACC-257): 18.9 µM (inactive)
- GI50 (HL-60): 2.22 µM (inactive)
- GI50 (RXF 393): 15.3 µM (inactive)
- GI50 (SNB-75): 48.4 µM (inactive)
- GI50 (HOP-62): 19.2 µM (inactive)
- GI50 (UO-31): 18.4 µM (inactive)
- GI50 (HT-29): 20.6 µM (inactive)
- GI50 (SN12C): > 100 µM (inactive)
- GI50 (DMS-114): 14.9 µM (inactive)
- GI50 (M19-MEL): 18.4 µM (inactive)
- GI50 (U-251): 14.6 µM (inactive)
- GI50 (NCI-H522): 15.2 µM (inactive)
- GI50 (OVCAR-8): 19.5 µM (inactive)
- GI50 (HOP-92): 17.3 µM (inactive)
- GI50 (SK-MEL-5): 18 µM (inactive)
- GI50 (Malme-3M): 19.8 µM (inactive)
- GI50 (RPMI-8226): 23.6 µM (inactive)
- GI50 (DMS-273): 24.9 µM (inactive)
- GI50 (SNB-78): 22.4 µM (inactive)
- GI50 (XF498): 18.2 µM (inactive)
